Values joined by “and” are separate entries in the source; they are usually repeats but may differ in a detail not shown here. Equal entries are not always repeated.
Key:
Details in all cases: incubation time: 72 h
[1] = test system: DU-4475; assay: normalised viability (% of control), CellTiter-Blue; higher = more viable cells (about 100 = DMSO control)
Description: (§1)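 DSRT, CellTiter-Blue viability, 72 h incubation. Signal is normalised to DMSO and benzethonium chloride controls. Value is the normalised response at dose 9.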

[2] = test system: HDQ-P1; assay: as above
Description: as §1

[3] = test system: CAL-148; assay: as above
Description: as §1

[4] = test system: CAL-85-1; assay: as above
Description: as §1

[5] = test system: MDA-MB-453; assay: as above
Description: as §1

[6] = test system: CAL-51; assay: as above
Description: as §1

[7] = test system: SK-BR-3; assay: normalised response (% of control), CellTiter-Glo; higher = more viable cells (100 = DMSO, 0 = benzethonium chloride kill control)
Procedure, shortened: (§2)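 In 384-well plates holding compound at 5 concentrations in 10-fold steps over a 10,000-fold range specific to each compound, breast cancer cell lines were seeded as 20 µl suspension and incubated 72 h. CellTox Green fluorescence was measured at 485/520 nm, after which CellTiter-Glo luminescence was measured following 10 min at room temperature. Plate signals were normalised to 0.1 % DMSO (100) and a positive kill control (0), and each value is the normalised signal at a single concentration.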

[8] = test system: MDA-MB-436; assay: as above
Procedure, shortened: as §2

[9] = test system: DU-4475; assay: as above
Procedure, shortened: as §2

[10] = test system: HDQ-P1; assay: as above
Procedure, shortened: as §2

[11] = test system: CAL-120; assay: as above
Procedure, shortened: as §2

[12] = test system: MDA-MB-468; assay: as above
Procedure, shortened: as §2

[13] = test system: CAL-148; assay: as above
Procedure, shortened: as §2

[14] = test system: HCC1937; assay: as above
Procedure, shortened: as §2

[15] = test system: CAL-85-1; assay: as above
Procedure, shortened: as §2

[16] = test system: CAL-51; assay: as above
Procedure, shortened: as §2

| Structure (SMILES) | normalised viability [1] | normalised viability [2] | normalised viability [3] | normalised viability [4] | normalised viability [5] | normalised viability [6] | normalised response [7] | normalised response [8] | normalised response [9] | normalised response [10] | normalised response [11] | normalised response [12] | normalised response [13] | normalised response [14] | normalised response [15] | normalised response [16] |
| --- | --- | --- | --- | --- | --- | --- | --- | --- | --- | --- | --- | --- | --- | --- | --- | --- |
| COc1cc(Nc2c(C#N)cnc3cc(OCCCN4CCN(C)CC4)c(OC)cc23)c(Cl)cc1Cl [Bosutinib] (10000 nM) | 4.38% | 4.45% | 9.6% | 12.4% | 4.44% | 11.1% | – | – | – | – | – | – | – | – | – | – |
| Nc1ccn([C@@H]2O[C@H](CO)[C@@H](O)C2(F)F)c(=O)n1 [Gemcitabine] (1000 nM) | 11.2% | 100% | 0.25% | 5.03% | 1.2% | 7.26% | – | – | – | – | – | – | – | – | – | – |
| Cc1cn(-c2cc(NC(=O)c3ccc(C)c(Nc4nccc(-c5cccnc5)n4)c3)cc(C(F)(F)F)c2)cn1 [Nilotinib] (10000 nM) | 102% and 86.8% | 84.2% and 86.2% | 89.7% and 84.6% | 86.3% and 84.9% | 106% and 94.7% | 103% and 100% | – | – | – | – | – | – | – | – | – | – |
| CC1(C)CCC(c2ccc(Cl)cc2)=C(CN2CCN(c3ccc(C(=O)NS(=O)(=O)c4ccc(N[C@H](CCN5CCOCC5)CSc5ccccc5)c(S(=O)(=O)C(F)(F)F)c4)cc3)CC2)C1 [Navitoclax] (10000 nM) | 4.02% | 60.2% | 66.7% | 71.3% | 52.7% | 77% | – | – | – | – | – | – | – | – | – | – |
| CCNC(=O)CCC/C=C\C[C@@H]1[C@@H](/C=C/[C@@H](O)CCc2ccccc2)[C@H](O)C[C@@H]1O [Bimatoprost] (550 nM) | – | – | – | – | – | – | 88.7% | 108% | 98.3% | 95.4% | 97.1% | 95.2% | 93.6% | 94.5% | 96.3% | 102% |
| CCNC(=O)c1noc(-c2cc(C(C)C)c(O)cc2O)c1-c1ccc(CN2CCOCC2)cc1 [NVP-AUY922] (1000 nM) | 2.34% | 32.7% | 18.6% | 26.6% | 7.53% | 8.3% | – | – | – | – | – | – | – | – | – | – |
| CC(C)(C)NC(=O)[C@H]1CC[C@H]2[C@@H]3CC[C@H]4NC(=O)C=C[C@]4(C)[C@H]3CC[C@]12C [Finasteride] (1000 nM) | – | – | – | – | – | – | 102% | 108% | 96.8% | 105% | 106% | 104% | 91.8% | 99.6% | 95% | 94.6% |
| CC1(C)CCC(c2ccc(Cl)cc2)=C(CN2CCN(c3ccc(C(=O)NS(=O)(=O)c4ccc(N[C@H](CCN5CCOCC5)CSc5ccccc5)c(S(=O)(=O)C(F)(F)F)c4)cc3)CC2)C1 [Navitoclax] (1000 nM) | – | – | – | – | – | – | 85.5% | 95.3% | 85.9% | 73% | 67.8% | 82.8% | 78.5% | 83.4% | 90% | 90.8% |
| Cc1cc(Nc2nc(N[C@@H](C)c3ncc(F)cn3)ncc2Cl)[nH]n1 [AZD1480] (100 nM) | – | – | – | – | – | – | 91.8% | 103% | 92.1% | 102% | 97.3% | 104% | 87.5% | 101% | 100% | 117% |
| Cc1cn(-c2cc(NC(=O)c3ccc(C)c(Nc4nccc(-c5cccnc5)n4)c3)cc(C(F)(F)F)c2)cn1 [Nilotinib] (1000 nM) | – | – | – | – | – | – | 97.5% | 103% | 97.7% | 104% | 100% | 93% | 84.4% | 96.5% | 102% | 70.9% |
| Nc1ccn([C@@H]2O[C@H](CO)[C@@H](O)C2(F)F)c(=O)n1 [Gemcitabine] (100 nM) | – | – | – | – | – | – | 41.5% | 32.6% | 74.5% | 86% | 78.8% | 28.4% | 56% | 79.2% | 43.1% | 24.4% |
| Cn1cc(C2=C(c3cn(C4CCN(Cc5ccccn5)CC4)c4ccccc34)C(=O)NC2=O)c2ccccc21 [Enzastaurin] (1000 nM) | – | – | – | – | – | – | 97.7% | 109% | 106% | 91.2% | 103% | 96.3% | 104% | 98.4% | 109% | 74.7% |
| COc1ccc(S(=O)(=O)Nc2cccnc2Nc2ccc(O)cc2)cc1 [ABT-751] (10000 nM) | 6.9% | 32.6% | 12.7% | 23.6% | 20.6% | 6.42% | – | – | – | – | – | – | – | – | – | – |
| CC(=O)[C@]1(O)Cc2c(O)c3c(c(O)c2[C@@H](O[C@H]2C[C@H](N)[C@H](O)[C@H](C)O2)C1)C(=O)c1ccccc1C3=O [Idarubicin] (1000 nM) | 0.02% | 17% | 1.34% | 6.92% | 11.6% | 1.95% | – | – | – | – | – | – | – | – | – | – |
| CO[C@@H]1[C@H](N(C)C(=O)c2ccccc2)C[C@H]2O[C@]1(C)n1c3ccccc3c3c4c(c5c6ccccc6n2c5c31)C(=O)NC4 [Midostaurin] (1000 nM) | – | – | – | – | – | – | 61.4% | 77.5% | 51.5% | 65.1% | 54% | 26.9% | 80.5% | 63.7% | 85.8% | 20.8% |
| C=CCn1c(=O)c2cnc(Nc3ccc(N4CCN(C)CC4)cc3)nc2n1-c1cccc(C(C)(C)O)n1 [MK1775] (1000 nM) | – | – | – | – | – | – | 14.4% | 30.8% | 65.6% | 35.9% | 47.3% | 43.4% | 12.2% | 39.6% | 18.7% | 18.5% |
| Cn1cc(C2=C(c3cn(C4CCN(Cc5ccccn5)CC4)c4ccccc34)C(=O)NC2=O)c2ccccc21 [Enzastaurin] (10000 nM) | 86% | 78.1% | 67.4% | 88.4% | 51.9% | 89.8% | – | – | – | – | – | – | – | – | – | – |
| CC(C)C[C@H](NC(=O)[C@@H](COC(C)(C)C)NC(=O)[C@H](Cc1ccc(O)cc1)NC(=O)[C@H](CO)NC(=O)[C@H](Cc1c[nH]c2ccccc12)NC(=O)[C@H](Cc1cnc[nH]1)NC(=O)[C@@H]1CCC(=O)N1)C(=O)N[C@@H](CCCNC(=N)N)C(=O)N1CCC[C@H]1C(=O)NNC(N)=O [Goserelin] (1000 nM) | – | – | – | – | – | – | 94.3% | 93.8% | 96.3% | 101% | 106% | 94.3% | 93.1% | 98.2% | 98.2% | 100% |
| CO[C@@]12[C@H](COC(N)=O)C3=C(C(=O)C(C)=C(N)C3=O)N1C[C@@H]1N[C@@H]12 [Mitomycin C] (1000 nM) | – | – | – | – | – | – | 96.7% | 88.3% | 96.9% | 97% | 94.1% | 86% | 90.9% | 95.2% | 95.6% | 60.2% |
| CC(O)(CS(=O)(=O)c1ccc(F)cc1)C(=O)Nc1ccc(C#N)c(C(F)(F)F)c1 (stereo unspecified) [Bicalutamide] (1000 nM) | – | – | – | – | – | – | 109% | 107% | 99% | 108% | 108% | 110% | 102% | 100% | 107% | 101% |
| COc1ccc(S(=O)(=O)Nc2cccnc2Nc2ccc(O)cc2)cc1 [ABT-751] (1000 nM) | – | – | – | – | – | – | 36.1% | 38.7% | 81.6% | 71.1% | 60.9% | 36.9% | 87.2% | 77.8% | 34.7% | 104% |
| CC(O)(CS(=O)(=O)c1ccc(F)cc1)C(=O)Nc1ccc(C#N)c(C(F)(F)F)c1 (stereo unspecified) [Bicalutamide] (10000 nM) | 121% | 128% | 107% | 102% | 100% | 112% | – | – | – | – | – | – | – | – | – | – |
| CC(=O)[C@]1(O)Cc2c(O)c3c(c(O)c2[C@@H](O[C@H]2C[C@H](N)[C@H](O)[C@H](C)O2)C1)C(=O)c1ccccc1C3=O [Idarubicin] (100 nM) | – | – | – | – | – | – | 83.4% | 65.7% | 83.1% | 103% | 99.7% | 64.5% | 63.5% | 98% | 91% | 42.6% |
| COc1cc(Nc2c(C#N)cnc3cc(OCCCN4CCN(C)CC4)c(OC)cc23)c(Cl)cc1Cl [Bosutinib] (1000 nM) | – | – | – | – | – | – | 97.1% | 87.8% | 99.8% | 51.2% | 83.8% | 81% | 101% | 78.8% | 72.2% | 77.2% |
| CCNC(=O)CCC/C=C\C[C@@H]1[C@@H](/C=C/[C@@H](O)CCc2ccccc2)[C@H](O)C[C@@H]1O [Bimatoprost] (5500 nM) | 107% | 115% | 92.2% | 92.2% | 106% | 114% | – | – | – | – | – | – | – | – | – | – |
| CC(C)(C)NC(=O)[C@H]1CC[C@H]2[C@@H]3CC[C@H]4NC(=O)C=C[C@]4(C)[C@H]3CC[C@]12C [Finasteride] (10000 nM) | 0.15% | 135% | 36.5% | 51.9% | 23% | 33.7% | – | – | – | – | – | – | – | – | – | – |
| O=C(CCCCCCC(=O)Nc1ccccc1)NO [Vorinostat] (1000 nM) | – | – | – | – | – | – | 89.5% | 89.6% | 86.5% | 85% | 85.9% | 69.4% | 90.6% | 85.2% | 93.7% | 72.2% |
| CNC(=O)c1ccccc1Sc1ccc2c(/C=C/c3ccccn3)n[nH]c2c1 [Axitinib] (1000 nM) | – | – | – | – | – | – | 90.5% | 97.8% | 102% | 96.8% | 95.3% | 83.9% | 103% | 88.6% | 117% | 59.4% |
| CCNC(=O)c1noc(-c2cc(C(C)C)c(O)cc2O)c1-c1ccc(CN2CCOCC2)cc1 [NVP-AUY922] (100 nM) | – | – | – | – | – | – | 35.8% | 44.6% | 0.04% | 23.5% | 47.5% | 28.7% | 27.6% | 28.7% | 20.5% | 14.8% |
| C/C(=C\c1csc(C)n1)[C@@H]1C[C@@H]2O[C@]2(C)CCC[C@H](C)[C@H](O)[C@@H](C)C(=O)C(C)(C)[C@@H](O)CC(=O)N1 [Ixabepilone] (100 nM) | – | – | – | – | – | – | 106% | 101% | 102% | 100% | 95.8% | 29.1% | 97.8% | 102% | 99.5% | 30.6% |

From the supplement of paper PMC4862054
